Measurements published in the supplement of paper PMC11208160.

Assay: recombinant barcode read abundance after kanamycin selection (control-corrected) (log10(CPM+1)); higher = more efficient recombination; sequences stand for … in AGTGCAGAGAAAATCGGCCAGTTTTCTCTGCCTGCAGTCCGCATGCCGT…AGATTTATGCAGCGGACTGCCTTTCTCCCAAAGTGATAAACCGGACAGTATCATGGACCGGTTTTCCCGGTAATCCGTATTTGCAAGGTTGGTTTCACT; site = the 11-nt target
Method in brief: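 Reported as log10(CPM+1), each value stands for recombination efficiency. That efficiency is the averaged, control-corrected counts per million of barcodes found at recombinant junctions. Cells from a pooled E. coli library pairing targets with IS621 bridge RNA target-binding loops were plated twice on chloramphenicol/ampicillin LB agar (control) and twice on chloramphenicol/ampicillin/kanamycin with 0.1 mM IPTG.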
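Note: IS621 recombinase and bridge RNA in Escherichia coli cells.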

| Sequence | recombinant barcode read abundance (log10) |
| --- | --- |
| TGCGGAGCTTGGGTTCTAACCTGTTGCCG (site TGCGGAGCTCG) | 0.726 |
| TGCGTCCCTTGGGTTCTAACCTGTTGCCT (site TGAGTCCCTAG) | 0.405 |
| TGCGTCCCTTGGGTTCTAACCTGTTGCCT (site TGCGTCCCTAG) | 0.291 |
| TGCGTCCCTTGGGTTCTAACCTGTTGCCT (site TGGGTCCCTAG) | 0.117 |
| TGCGTCCCTTGGGTTCTAACCTGTTGCCT (site TGTGTCCCTAG) | 0.0158 |
| TGCTCCTCTTGGGTTCTAACCTGTTGCCT (site AGCTCCTCTAG) | 0.0656 |
| TGCTCCTCTTGGGTTCTAACCTGTTGCCT (site CGCTCCTCTAG) | 0.153 |
| TGCTCCTCTTGGGTTCTAACCTGTTGCCT (site GGCTCCTCTAG) | 0.109 |
| TGCTCCTCTTGGGTTCTAACCTGTTGCCT (site TGCTCCTCTAG) | 0.274 |
| TGCTTCCCTTGGGTTCTAACCTGTTGCGG (site TGCTTCCCTCC) | 0.594 |
| TGCTTCCCTTGGGTTCTAACCTGTTGCGG (site TGGTGCCCTCC) | 0.114 |
| TGGACGACTTGGGTTCTAACCTGTTGCTT (site GATCGAGCTCT) | 0.0173 |
| TGGACGACTTGGGTTCTAACCTGTTGCTT (site TGGACGACTAA) | 0.592 |
| TGGACGCCTTGGGTTCTAACCTGTTGCCT (site TGGACGCCTAG) | 0.252 |
| TGGACGCCTTGGGTTCTAACCTGTTGCCT (site TGGACGTCTAG) | 0.0267 |
| TGGAGCACTTGGGTTCTAACCTGTTGCCT (site TGGAACACTAG) | 0 |
| TGGAGCACTTGGGTTCTAACCTGTTGCCT (site TGGACCACTAG) | 0.107 |
| TGGAGCACTTGGGTTCTAACCTGTTGCCT (site TGGAGCACTAG) | 1.11 |
| TGGAGCACTTGGGTTCTAACCTGTTGCCT (site TGGATCACTAG) | 0.0861 |
| TGGAGCCCTTGGGTTCTAACCTGTTGCAA (site TGGAGCCCTAT) | 0.0946 |
| TGGAGCCCTTGGGTTCTAACCTGTTGCAA (site TGGAGCCCTCT) | 0.0367 |
| TGGAGCCCTTGGGTTCTAACCTGTTGCAA (site TGGAGCCCTGT) | 0.263 |
| TGGAGCCCTTGGGTTCTAACCTGTTGCAA (site TGGAGCCCTTT) | 0.155 |
| TGGAGCCCTTGGGTTCTAACCTGTTGCAT (site TGGAGCCCTAT) | 0.211 |
| TGGAGCCCTTGGGTTCTAACCTGTTGCAT (site TGGAGCCCTCT) | 0.053 |
| TGGAGCCCTTGGGTTCTAACCTGTTGCAT (site TGGAGCCCTGT) | 0.0522 |

| Sequence | recombinant barcode read abundance (log10) |
| --- | --- |
| TGGAGCCCTTGGGTTCTAACCTGTTGCAT (site TGGAGCCCTTT) | 0.15 |
| TGGATGCCTTGGGTTCTAACCTGTTGCCT (site TGAATGACTAG) | 0.0485 |
| TGGATGCCTTGGGTTCTAACCTGTTGCCT (site TGGATGCCTAG) | 0.884 |
| TGGATTGCTTGGGTTCTAACCTGTTGCCT (site TGGATTCCTAG) | 0.0162 |
| TGGATTGCTTGGGTTCTAACCTGTTGCCT (site TGGATTGCTAG) | 0.74 |
| TGGCACCCTTGGGTTCTAACCTGTTGCGG (site TGGAACCCTCC) | 0.129 |
| TGGCACCCTTGGGTTCTAACCTGTTGCGG (site TGGCACCCTCC) | 2.42 |
| TGGCACTCTTGGGTTCTAACCTGTTGCTT (site AGGCACTCTCA) | 0.177 |
| TGGCACTCTTGGGTTCTAACCTGTTGCTT (site TGGCACTCTAA) | 1.02 |
| TGGCCAACTTGGGTTCTAACCTGTTGCGT (site TAGTCAACTAC) | 0.434 |
| TGGCCAACTTGGGTTCTAACCTGTTGCGT (site TGGCCAACTAC) | 1.84 |
| TGGCGTCCTTGGGTTCTAACCTGTTGCCT (site TGGAGTCCTAG) | 0.0306 |
| TGGCGTCCTTGGGTTCTAACCTGTTGCCT (site TGGCGTCCTAG) | 0.963 |
| TGGCGTCCTTGGGTTCTAACCTGTTGCCT (site TGGGGTCCTAG) | 0.0381 |
| TGGCGTCCTTGGGTTCTAACCTGTTGCCT (site TGGTGTCCTAG) | 0.116 |
| TGGGACTCTTGGGTTCTAACCTGTTGCCT (site TGAGACTCTAG) | 2.44 |
| TGGGACTCTTGGGTTCTAACCTGTTGCCT (site TGCGACTCTAG) | 0.00712 |
| TGGGACTCTTGGGTTCTAACCTGTTGCCT (site TGGGACTCTAG) | 2.64 |
| TGGGACTCTTGGGTTCTAACCTGTTGCCT (site TGTGACTCTAG) | 0.108 |
| TGGGCACCTTGGGTTCTAACCTGTTGCTT (site GGGGCACCTTA) | 0.175 |
| TGGGCACCTTGGGTTCTAACCTGTTGCTT (site TGGGCACCTAA) | 1.37 |
| TGGGGTACTTGGGTTCTAACCTGTTGCCT (site TGGAGTACTAG) | 0.141 |
| TGGGGTACTTGGGTTCTAACCTGTTGCCT (site TGGCGTACTAG) | 0.097 |
| TGGGGTACTTGGGTTCTAACCTGTTGCCT (site TGGGGTACTAG) | 1.11 |
| TGGGGTACTTGGGTTCTAACCTGTTGCCT (site TGGTGTACTAG) | 0.177 |
| TGGGTCCCTTGGGTTCTAACCTGTTGCTT (site TGAGTCCCTTA) | 0.272 |

| Sequence | recombinant barcode read abundance (log10) |
| --- | --- |
| TGGGTCCCTTGGGTTCTAACCTGTTGCTT (site TGGGTCCCTAA) | 2.1 |
| TGGTACGCTTGGGTTCTAACCTGTTGCCT (site TGGTACGCTAG) | 1.45 |
| TGGTACGCTTGGGTTCTAACCTGTTGCCT (site TGGTCCGCTAG) | 0.235 |
| TGGTACGCTTGGGTTCTAACCTGTTGCCT (site TGGTGCGCTAG) | 0.15 |
| TGGTACGCTTGGGTTCTAACCTGTTGCCT (site TGGTTCGCTAG) | 0.24 |
| TGGTGCCCTTGGGTTCTAACCTGTTGCGG (site TGCTTCCCTCC) | 0.109 |
| TGGTGCCCTTGGGTTCTAACCTGTTGCGG (site TGGTGCCCTCC) | 1.45 |
| TGGTGTACTTGGGTTCTAACCTGTTGCCT (site TGGAGTACTAG) | 0.0346 |
| TGGTGTACTTGGGTTCTAACCTGTTGCCT (site TGGCGTACTAG) | 0.426 |
| TGGTGTACTTGGGTTCTAACCTGTTGCCT (site TGGGGTACTAG) | 0.143 |
| TGGTGTACTTGGGTTCTAACCTGTTGCCT (site TGGTGTACTAG) | 0.461 |
| TGTAAGACTTGGGTTCTAACCTGTTGCAG (site GAACGCTCTAA) | 0.0634 |
| TGTAAGACTTGGGTTCTAACCTGTTGCAG (site TGTAAGACTCT) | 0.644 |
| TGTAAGACTTGGGTTCTAACCTGTTGCTG (site TGTAAGACTCA) | 0.505 |
| TGTAAGACTTGGGTTCTAACCTGTTGCTG (site TGTAAGGCTAA) | 0.015 |
| TGTAGAGCTTGGGTTCTAACCTGTTGCCG (site TGTAGAGCTCG) | 0.243 |
| TGTAGAGCTTGGGTTCTAACCTGTTGCCG (site TGTCGAGCTCG) | 0.483 |
| TGTAGAGCTTGGGTTCTAACCTGTTGCCG (site TGTGGAGCTCG) | 0 |
| TGTAGAGCTTGGGTTCTAACCTGTTGCCG (site TGTTGAGCTCG) | 0.258 |
| TGTAGATCTTGGGTTCTAACCTGTTGCAT (site TGTAGATCTAT) | 0.152 |
| TGTAGATCTTGGGTTCTAACCTGTTGCAT (site TGTTGACCTAT) | 0.15 |
| TGTAGTCCTTGGGTTCTAACCTGTTGCTT (site TGTAGTCCTAA) | 0.0506 |
| TGTAGTCCTTGGGTTCTAACCTGTTGCTT (site TGTAGTCCTAC) | 0.264 |
| TGTAGTCCTTGGGTTCTAACCTGTTGCTT (site TGTAGTCCTAG) | 0.187 |
| TGTAGTCCTTGGGTTCTAACCTGTTGCTT (site TGTAGTCCTAT) | 0.0117 |
